Assay [1] deals with T1, Dihydroorotate dehydrogenase (quinone), mitochondrial [30-395] (Rattus norvegicus, UniProt Q63707).
T1 construct: 30-395
The assay is described as follows: Enzyme Inhibition Assay. The conditions noted are these: pH 8; 30 °C.

The target in assay [2] is Dihydroorotate dehydrogenase (quinone), mitochondrial (Rattus norvegicus, UniProt Q63707). Put plainly: Enzyme Inhibition Assay. The following applies: pH 8; 30 °C.
Dihydroorotate dehydrogenase (quinone), mitochondrial, sequence (Q63707 whole entry): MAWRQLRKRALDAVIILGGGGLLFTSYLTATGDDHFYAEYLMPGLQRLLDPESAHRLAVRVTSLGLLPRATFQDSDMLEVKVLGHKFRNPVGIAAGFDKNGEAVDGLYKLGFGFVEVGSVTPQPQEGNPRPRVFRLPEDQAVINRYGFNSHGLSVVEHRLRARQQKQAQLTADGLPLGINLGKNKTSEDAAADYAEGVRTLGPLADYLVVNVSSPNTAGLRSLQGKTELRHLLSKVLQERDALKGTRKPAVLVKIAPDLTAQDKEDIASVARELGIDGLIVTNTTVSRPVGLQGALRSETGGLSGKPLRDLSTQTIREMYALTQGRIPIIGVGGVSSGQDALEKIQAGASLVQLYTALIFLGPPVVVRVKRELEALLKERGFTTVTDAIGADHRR

T1 sequence (Q63707 30-395): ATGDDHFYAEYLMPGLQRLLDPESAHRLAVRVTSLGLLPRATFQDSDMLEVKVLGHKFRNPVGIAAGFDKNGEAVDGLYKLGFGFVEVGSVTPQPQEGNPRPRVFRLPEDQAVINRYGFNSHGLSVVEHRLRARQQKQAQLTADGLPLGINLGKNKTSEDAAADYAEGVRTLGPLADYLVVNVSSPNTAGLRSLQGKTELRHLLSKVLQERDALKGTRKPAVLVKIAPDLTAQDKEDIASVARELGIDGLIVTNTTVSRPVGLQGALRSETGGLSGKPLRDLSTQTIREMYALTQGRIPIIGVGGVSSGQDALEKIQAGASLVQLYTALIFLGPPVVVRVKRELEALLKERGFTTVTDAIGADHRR

For orientation: IC50 means the concentration at which inhibition is half-maximal. A low value points to greater potency. Take `O=C1C(=O)C(C2CCC(c3ccc(Cl)cc3)CC2)C(=O)c2ccccc21` (configuration not stated) [Mepron]: the results for the IC50 in assay [1] and in assay [2] were 904 nM and 698 nM, respectively.

The values above are taken from BindingDB's records for doi:10.1110/ps.03533004 (University of Copenhagen, 2004).
